Values of other authors, collected in patent publication US20030130180A1, “Utilization of an aminopeptidase inhibitor” (priority 2000, published 2003).

Tested on: tumor cells
Details: in vitro, matrigel analytic system; cited from earlier work

Structure (SMILES): CCCCC[C@H](CC(=O)NO)C(=O)N[C@H](C(=O)N1CCC[C@H]1CO)C(C)C [actinonin]
- tumor cell invasion: do not have an effect
